From US20240342141A1, “Method for Treating or Preventing Diabetic Nephropathy” (Japan Tobacco Inc., priority 2015, published 2024)

What was measured:
[1] = tested on: SD rat model of renal ischemia-reperfusion injury; test: Suppressive effect on tubulointerstitial fibrosis in a rat model of renal ischemia-reperfusion injury (sirius red staining); assay type: in vivo; settings: male SD rats, oral once daily for 6 days starting 3 days before ischemia-reperfusion injury, 0.2 or 2 mg/mL at 5 mL/kg; kidney 4 weeks after injury; FIG. 3
Description: Experiment 2. […] Male SD rat at 6 weeks of age (CHARLES RIVER LABORATORIES JAPAN, INC.) was used as an experiment animal. 0.5% (w/v) Methylcellulose (MC) was orally administered to Vehicle Group and Sham Group, and 0.2 mg/mL or 2 mg/mL Compound A suspended in 0.5% (w/v) methylcellulose (MC) was orally administered to Compound A Group at a dose of 5 mL/kg once daily for 6 days from 3 days before the ischemia-reperfusion injury. On one day before the ischemia-reperfusion injury, the right kidney was removed under isoflurane anesthesia. The ischemia-reperfusion injury was induced by clamping the left renal vein and artery for 45 minutes and then following reperfusion under isoflurane anesthesia, whereas such a surgery treatment was not performed for the Sham Group. 4 Weeks after the ischemia-reperfusion injury, the rats were exsanguinated under isoflurane anesthesia, kidney was collected and fixed in 10% neutral buffered formalin, and then paraffin-embedded section was prepared. Staining and image analysis were performed by a similar method as described above.

[2] = tested on: SHR/NDmcr-cp rat model of diabetic nephropathy; test: Suppressive effect on tubulointerstitial fibrosis in a rat model of diabetic nephropathy (sirius red staining); assay type: in vivo; settings: male SHR/NDmcr-cp rats, Compound A 0.01% diet from 12 to 40 weeks of age (28 weeks), kidney sections; FIG. 1
Description: Experiment 1. […] Male […] (Japan SLC, Inc.) was used as an experiment animal, and male WKY/Izm rat was used as a normal control (WKY group). The above-mentioned two types of rats were purchased at 6 weeks of age. After confirming that […] have hyperglycemia, hypertension, and hyperlipidemia; Compound A (0.01% diet) and vehicle (powdered diet) were administered to Compound A Group and Vehicle Group respectively from 12 weeks of age to 40 weeks of age. At 40 weeks of age, the rats were exsanguinated under isoflurane anesthesia, kidney was collected and fixed in 10% neutral buffered formalin, and then paraffin-embedded section was prepared. After deparaffinization, the section was stained with an iron hematoxylin solution for 8 minutes and then with a sirius red solution for 1 hour. The iron hematoxylin solution was prepared at the time of use by mixing equal volume of Solution 1 (dissolving 1 g hematoxylin in 100 mL ethanol) and Solution 2 (dissolving 2 g ferric chloride (FeCl3·6H2O) and 1 mL of 25% hydrochloric acid in 95 mL distilled water). […] An image of the sirius red-stained section was captured with HS All-in-One Fluorescence Microscope (BZ-9000, KEYENCE CORPORATION), and the ratio (%) of sirius red-stained area relative to the whole kidney area was measured by a built-in image analysis function.

[3] = tested on: hypoxia-inducible factor (HIF); settings: as described in Patent Document 1 (WO 2011/007856); cited from earlier work
[4] = tested on: prolyl hydroxylase (PHD); settings: as described in Patent Document 1 (WO 2011/007856); cited from earlier work

Structure (SMILES): O=C(O)CNC(=O)c1c(O)cc(CCc2ccccc2)n2ncnc12 [Compound A, 2-({[7-hydroxy-5-(2-phenylethyl)-[1,2,4]triazolo[1,5-a]pyridin-8-yl]carbonyl}amino)acetic acid]
- tubulointerstitial fibrosis, sirius red-stained area ratio [1]: suppressive effect on tubulointerstitial fibrosis
- tubulointerstitial fibrosis, sirius red-stained area ratio [2]: suppressive effect on tubulointerstitial fibrosis
- stabilization of hypoxia-inducible factor (HIF) [3]: stabilizes the hypoxia-inducible factor (HIF)
- prolyl hydroxylase (PHD) inhibitory action [4]: has a prolyl hydroxylase (PHD) inhibitory action
